Experimental findings from PubChem BioAssay AID1033 (Sanford-Burnham Center for Chemical Genomics, 2008) are described below.

The source made the active and inactive calls. How the calls were made is not given here.

For this assay, the target named is Chaperone protein DnaK (Escherichia coli (strain K12)) (UniProt P0A6Y8). In words: binders of DnaK substrate-binding domain, biophysical, NMR, chaperone (AID 1033). The settings on record: Purified DnaK SBD, NMR ligand binding.
Chaperone protein DnaK (Escherichia coli (strain K12)), sequence (P0A6Y8 whole entry, looked up, the tested form may be a part): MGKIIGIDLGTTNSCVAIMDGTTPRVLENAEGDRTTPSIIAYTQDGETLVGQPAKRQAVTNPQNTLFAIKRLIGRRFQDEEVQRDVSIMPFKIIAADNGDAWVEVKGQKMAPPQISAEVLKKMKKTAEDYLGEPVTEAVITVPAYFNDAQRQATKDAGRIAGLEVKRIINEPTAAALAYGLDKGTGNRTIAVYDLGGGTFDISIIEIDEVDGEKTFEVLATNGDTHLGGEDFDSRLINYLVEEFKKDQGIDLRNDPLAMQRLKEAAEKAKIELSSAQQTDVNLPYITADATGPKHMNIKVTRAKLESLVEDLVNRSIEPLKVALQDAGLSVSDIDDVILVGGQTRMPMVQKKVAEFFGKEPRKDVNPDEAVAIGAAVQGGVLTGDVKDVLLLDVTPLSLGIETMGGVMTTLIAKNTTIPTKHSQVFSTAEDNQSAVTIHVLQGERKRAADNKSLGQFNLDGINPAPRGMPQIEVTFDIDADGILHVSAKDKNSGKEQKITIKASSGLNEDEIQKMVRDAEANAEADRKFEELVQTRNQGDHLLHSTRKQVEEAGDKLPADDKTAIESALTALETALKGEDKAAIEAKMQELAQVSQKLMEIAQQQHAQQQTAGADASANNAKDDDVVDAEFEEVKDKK
The Kd is the equilibrium constant for the complex coming apart. In the case of `O=C(O)CCCCC1SCC2NC(=O)NC21` (stereo not given), the Kd was > 4 mM (inactive). For `CC(C)CCCC(C)C1CCC2C3C[C@@H](O)[C@@]4(O)C[C@@H](O)CC[C@]4(C)C3CC[C@]12C` (stereo not given in full) the value was > 4 mM (inactive); for `Cc1c(C(=O)Nc2ccccn2)oc2ccccc12`, > 4 mM (inactive). For `COc1c(CC=C(C)C)c2c(c3oc(=O)c(-c4ccc(O)cc4)c(O)c13)C=CC(C)(C)O2` the value was > 4 mM (inactive); for `Cn1c(O)c(/C=C2\C=CC=N2)c(=O)[nH]c1=S`, > 4 mM (inactive); for `COc1ccccc1CNc1nc2nc(C)cc(=O)n2[nH]1`, > 4 mM (inactive). For the molecule `O=[n+]1c(CO)c(CO)n([O-])c2ccccc21`, the Kd is > 4 mM (inactive).

On to `O=C(O)c1ccc2sccc2c1`, for which the Kd was > 4 mM (inactive).

For the molecule `Cc1occc1C(=O)Nc1ccc(C(N)=O)cc1`, the Kd is > 4 mM (inactive). The same measure for `Nc1ccc(Cc2ccc(N)cc2)cc1`: > 4 mM (inactive). Turning to `CCCc1cc(=O)[nH]c2nnc(SCC(C)=O)n12`, the Kd is > 4 mM (inactive). As to `C[C@H]1CCCC(=O)CCC/C=C/c2cc(O)cc(O)c2C(=O)O1`, the Kd was > 4 mM (inactive).

For `OC1CCCN(Cc2ccccc2)C1` (stereo not given), the Kd is > 4 mM (inactive).

Turning to `S=c1[nH]cnc2sccc12`, the Kd was > 4 mM (inactive).

As for `O=C1COc2ccccc2C(=O)N1`, the Kd was > 4 mM (inactive). In the case of `Nc1cccc2cccnc12`, the Kd is > 4 mM (inactive).

For `CSc1ccccc1C(=O)N1CCOCC1`, the Kd is > 4 mM (inactive). For the molecule `Cc1ccc(N2C(=O)CC(=O)NC2=O)cc1`, the Kd is > 4 mM (inactive). On to `Cc1ccc(CNC(=O)c2ccc([N+](=O)[O-])o2)cc1`, for which the Kd is under 0.2 mM. Regarding `COc1ccc(-c2coc3cc(OC(C)=O)cc(OC(C)=O)c3c2=O)cc1`, the Kd is > 4 mM (inactive). The same measure for `CC(=O)c1csc(-c2cc(C)on2)n1`: > 4 mM (inactive); for `NCc1csc(-c2ccccc2)n1`: > 4 mM (inactive); for `CC1=CCc2c(cc3oc(C)cc(=O)c3c2O)OC1`: > 4 mM (inactive). Regarding `O=C(CSc1ncnc2ccccc12)NCCCO`, the Kd is > 4 mM (inactive). The same measure for `Nc1nc(N)nc(N2C(=O)c3ccccc3C2=O)n1`: > 4 mM (inactive); for `Cc1nccc(-c2cccc(N)c2)n1`: > 4 mM (inactive); for `CC(CC(=O)O)n1cccn1` (stereo not given): > 4 mM (inactive). For `Nc1ccc(-c2cnco2)cc1` the value was > 4 mM (inactive); for `CC(C)C1COc2cc3oc(=O)ccc3cc2O1` (stereo not given), > 4 mM (inactive).

Take `CC(=O)Nc1nc(C)c(C(C)=O)s1`: the Kd is > 4 mM (inactive). For `Cc1nn(-c2ccccc2)nc1CN` the value was > 4 mM (inactive); for `CNC(=O)Nc1cccc(C(F)(F)F)c1`, > 4 mM (inactive); for `Cc1cc(N)ccc1NC(=O)c1ccco1`, > 4 mM (inactive). On to `O=C1c2ccncc2C(=O)N1CO`, for which the Kd is > 4 mM (inactive). With `COc1ccc2[nH]cc(CCNC(C)=O)c2c1`, the Kd is > 4 mM (inactive). As to `O=C(O)c1ccc(-c2cccs2)s1`, the Kd was > 4 mM (inactive). Take `CC(=O)Oc1c2c(c(CC=C(C)C)c3c1C(=O)C1=C[C@@H]4CC5C(C)(C)OC(C/C=C(\C)C(=O)O)(C4=O)[C@@]15O3)OC(C)(CCC=C(C)C)C=C2` (stereo not given in full): the Kd was > 4 mM (inactive). For `O=C(c1ccco1)N1CCn2c1nc1ccccc12`, the Kd is > 4 mM (inactive). With `COc1cc(C)c(Cl)cc1S(=O)(=O)N(C)C`, the Kd is > 4 mM (inactive). In the case of `OCC12COC3c4ccccc4C(OC1)N32` (stereo not given), the Kd was > 4 mM (inactive). As to `Cc1nnc(NC(=O)C(C)Sc2nncn2C)s1` (stereo not given), the Kd is > 4 mM (inactive). For `Cc1cc(-c2ccccc2)nc2cc(C(N)=O)nn12` the value was > 4 mM (inactive); for `NNC(=O)c1ccccc1-n1cccc1`, > 4 mM (inactive).

For `O=C(Nc1ccon1)c1csc2c1CCCC2`, the Kd is > 4 mM (inactive).

As for `O=C(Nc1cccnc1)c1cccs1`, the Kd was > 4 mM (inactive). The same measure for `O=C(Nc1ccncc1)Nc1ccc(F)cc1F`: > 4 mM (inactive); for `CC1=NNC(=O)C1CCc1ccncc1` (stereo not given): > 4 mM (inactive). As to `Cc1cc(=O)n(C(N)=S)[nH]1`, the Kd is > 4 mM (inactive). Take `CCOC(=O)c1cc(C)n(C)n1`: the Kd is > 4 mM (inactive). As to `O=c1[nH]c(O)c(C=NC2CC2)c(=O)[nH]1`, the Kd is > 4 mM (inactive). The same measure for `Cc1nn(C)c(Cl)c1S(=O)(=O)N1CCOCC1`: > 4 mM (inactive). With `CCn1cnc2cc(NCc3ccncc3)ccc21`, the Kd is > 4 mM (inactive).

In the case of `O=C1CCc2ccccc2CN1`, the Kd is > 4 mM (inactive). With `Nc1c(N2CCCC2)cnn(-c2ccccc2)c1=O`, the Kd is > 4 mM (inactive). Consider `COc1ccc2c(c1)OC/C(=C\c1ccc(OC)c(O)c1)C2=O`, for which the Kd is > 4 mM (inactive). On to `CN(C)Cc1c(N)cccc1O`, for which the Kd was > 4 mM (inactive). As for `C=C(C)[C@@H]1CC[C@]2(CO)CC[C@]3(C)[C@H](CCC4[C@@]5(C)CC[C@H](O)C(C)(C)C5CC[C@]43C)C12` (stereo not given in full), the Kd was > 4 mM (inactive).

Turning to `COc1cc(OC)c(OC)cc1C=O`, the Kd was > 4 mM (inactive). Take `Cc1nnc(N2CCN(Cc3ccccc3)CC2)[nH]c1=O`: the Kd is > 4 mM (inactive).

Turning to `Cc1nc2[nH]onc2c2nccc(=O)c12`, the Kd was > 4 mM (inactive). As for `CS(=O)(=O)N1CCN(c2ncccn2)CC1`, the Kd was > 4 mM (inactive). As to `CC(CCC(=O)O)[C@H]1CCC2C3CC[C@@H]4C[C@H](O)CC[C@]4(C)C3CC[C@@]21C` (stereo not given in full), the Kd is > 4 mM (inactive).

On to `Nc1nc(-c2cccnc2)nn1C(=O)Cc1ccccc1`, for which the Kd was > 4 mM (inactive). Take `COc1cccc(C(=O)N2CCOCC2)c1`: the Kd was > 4 mM (inactive). As to `O=c1cccc2n1CC1CC2CN2CCCC[C@@H]12` (stereo not given in full), the Kd was > 4 mM (inactive). The same measure for `O=c1cc(-c2ccccc2)oc2cc(O)cc(O)c12`: > 4 mM (inactive); for `NS(=O)(=O)c1ccc(N=Cc2cccs2)cc1`: > 4 mM (inactive). Turning to `O=C(O)C1=CCCNC1`, the Kd was > 4 mM (inactive).

With `Cc1cccn2cc(CNc3ccccc3)nc12`, the Kd is > 4 mM (inactive). As to `Cn1cnc2c(=O)[nH]cc([N+](=O)[O-])c21`, the Kd is > 4 mM (inactive). As to `O=c1cnnc(Nc2ccc(O)cc2)[nH]1`, the Kd is > 4 mM (inactive). The same measure for `CC(=O)O[C@@H]1CC2C(C)(CC[C@H](O)C2(C)C)C2CC[C@]3(C)C(=CC(=O)O[C@H]3c3ccoc3)C21C` (stereo not given in full): > 4 mM (inactive); for `O=C(O)c1cc(F)cc2c1OCOC2`: > 4 mM (inactive). For the molecule `CC(=O)Oc1cc2c(c(C)c1OC(C)=O)CC=C1[C@@]2(C)CC[C@@]2(C)C3C[C@](C)(C(=O)O)CC[C@]3(C)CC[C@]12C` (stereo not given in full), the Kd is > 4 mM (inactive).

Regarding `C/C=C(\C)C(=O)OC1[C@@H]2C=C3C(CC[C@]4(C)C3CC(=O)O[C@H]4c3ccoc3)C(C)(C2=O)[C@@H](C(O)C(=O)OC)C1(C)C` (stereo not given in full), the Kd was > 4 mM (inactive).

Regarding `COC1CC(O[C@H]2CC[C@]3(C=O)C4CC[C@]5(C)C(C6=CC(=O)OC6)CC[C@]5(O)C4CC[C@]3(O)C2)OC(C)C1O` (stereo not given in full), the Kd was > 4 mM (inactive). Turning to `Cc1ccccc1CSc1nnc(C)n1N`, the Kd is > 4 mM (inactive).

For the molecule `COc1ccc(C2CC(=O)c3ccc(OC)cc3O2)cc1` (stereo not given), the Kd is > 4 mM (inactive).

As for `NCc1ccc(-c2cccs2)cc1`, the Kd is > 4 mM (inactive).

As for `c1ccc2c(c1)[nH]c1cnccc12`, the Kd is > 4 mM (inactive). As for `CN1CCC(O)N1C(=O)c1ccccc1O` (stereo not given), the Kd was > 4 mM (inactive). Turning to `Cc1ccc(C(O)c2nccn2C)o1` (stereo not given), the Kd was > 4 mM (inactive). Turning to `O=C(Nc1ccc2c(c1)OCCO2)c1c(F)cccc1F`, the Kd is > 4 mM (inactive). For `O=C(NCc1ccc2c(c1)OCO2)c1cccs1` the value was > 4 mM (inactive); for `Cn1nnc2cc(C(=O)NC3=NCCS3)ccc21`, > 4 mM (inactive).

As to `O=C1CC(=O)N(c2ccccc2F)C(=S)N1`, the Kd was > 4 mM (inactive). With `OCC1CCN(Cc2ccccc2)CC1`, the Kd was > 4 mM (inactive). Regarding `CCOC(=O)CSc1nnc(C)c(=O)[nH]1`, the Kd was > 4 mM (inactive). As for `O=C(O)/C=C/c1ccc(O)c(O)c1`, the Kd was > 4 mM (inactive). On to `Cc1cc(S(=O)(=O)N2CCOCC2)ccc1F`, for which the Kd is > 4 mM (inactive).

For `COC[C@]12CN(C=O)C3[C@@H]4[C@H](OC)C1[C@]3(C1CC3(O)C(OC)C(O)C4(OC(C)=O)C1C3OC(=O)c1ccccc1)[C@@H](OC)C[C@H]2O` (stereo not given in full), the Kd was > 4 mM (inactive). In the case of `CC(=O)Oc1ccc2c(c1C(C)C)CCC1C(C)(C)CCC[C@]21C` (stereo not given in full), the Kd was > 4 mM (inactive). As for `Nc1cc(=O)[nH]c(=S)n1CCc1ccccc1`, the Kd is > 4 mM (inactive). `C=C1C2CC[C@@]3(C)[C@H](c4ccoc4)OC(=O)C[C@]13O[C@H]1CC(=O)C(C)(C)[C@H](C(OC(C)=O)C(=O)OC)[C@@]21C` (stereo not given in full): the Kd is > 4 mM (inactive).

`CC(C)(CO)NC(=O)c1ccccc1F`: the Kd is > 4 mM (inactive).

With `CS(=O)(=O)N1CCC(C(=O)NC2CCCC2)CC1`, the Kd is > 4 mM (inactive). On to `Cc1csc2nc3ccccc3c(=O)n12`, for which the Kd is > 4 mM (inactive). The same measure for `c1cncc(Nc2nc(-c3cccnc3)cs2)c1`: > 4 mM (inactive); for `O=C(CCc1ccc(O)cc1)c1c(O)cc(O)cc1O`: > 4 mM (inactive). In the case of `COc1cc([C@@H]2c3cc4c(cc3[C@H](OC(C)=O)[C@H]3COC(=O)[C@H]23)OCO4)cc(OC)c1OC`, the Kd is > 4 mM (inactive).
